Data from PMC8653682, “Anti-Helicobacter pylori Compounds from Oliveria decumbens Vent. through Urease Inhibitory In-vitro and In-silico Studies” (Iranian Journal of Pharmaceutical Research : IJPR, 2021).
Values after ≈ are worked out from the molar mass of the structure shown. Like-named read-outs stand apart in the source and are kept apart here.

How the values were obtained:
[1] = system: Staphylococcus aureus ATCC 6538; assay: Antibacterial activity by disc diffusion method, S. aureus; assay type: cell-based; details: extract/fractions 500 µg/disc, ciprofloxacin 5 µg/disc, penicillin 10 µg/disc
Method: (§1) Briefly, overnight cultures of bacteria were used to prepare a bacterial inoculum in sterile normal saline. The bacterial inoculum was standardized to the turbidity of 0.5 McFarland (the density equivalent to 1.5 × 10^8 cfu/mL). The surface of Mueller-Hinton (MH) agar plates was covered by 100 µL of diluted bacterial suspension containing 5 ×10^5 cfu. Different concentrations of the plant extract or fraction were prepared. Sterile blank discs (6.4 mm diameter) containing different concentrations of the plant extract or fractions (15 μL) were placed on the agar plates. The mean inhibition zone diameter was measured after overnight incubation at 37 °C.

[2] = system: Staphylococcus epidermidis ATCC 12229; assay: Antibacterial activity by disc diffusion method, S. epidermidis; assay type: cell-based; details: extract/fractions 500 µg/disc, ciprofloxacin 5 µg/disc, penicillin 10 µg/disc
Method: as §1

[3] = system: Escherichia coli ATCC 8739; assay: Antibacterial activity by disc diffusion method, E. coli; assay type: cell-based; details: extract/fractions 500 µg/disc, ciprofloxacin 5 µg/disc, penicillin 10 µg/disc
Method: as §1

[4] = system: Helicobacter pylori strain RIGLD-HC180; assay: Anti-Helicobacter pylori activity by agar dilution method; assay type: cell-based; details: RIGLDHC180, 72 h, tested 50 to 2000 μg/mL, read-out: MIC for the growth of Helicobacter pylori
Method: Anti-Helicobacter pylori activity of the samples was investigated by an agar dilution method according to our previous study ([17]). […] The Agar dilution method has been standardized previously as an appropriate method to determine minimum inhibitory concentrations (MIC) of water-insoluble and colored plant extracts. […] Growth control plates were included in each experiment. […] All the experiments were performed in triplicate. Plates, including amoxicillin, were used as a positive control ([17]).

Jack bean urease = biological target: T1, Jack bean urease (Canavalia ensiformis, UniProt P07374); assay: biochemical; assay type: biochemical
T1 construct: purchased Sigma-Aldrich
T1 sequence (P07374 whole entry, looked up): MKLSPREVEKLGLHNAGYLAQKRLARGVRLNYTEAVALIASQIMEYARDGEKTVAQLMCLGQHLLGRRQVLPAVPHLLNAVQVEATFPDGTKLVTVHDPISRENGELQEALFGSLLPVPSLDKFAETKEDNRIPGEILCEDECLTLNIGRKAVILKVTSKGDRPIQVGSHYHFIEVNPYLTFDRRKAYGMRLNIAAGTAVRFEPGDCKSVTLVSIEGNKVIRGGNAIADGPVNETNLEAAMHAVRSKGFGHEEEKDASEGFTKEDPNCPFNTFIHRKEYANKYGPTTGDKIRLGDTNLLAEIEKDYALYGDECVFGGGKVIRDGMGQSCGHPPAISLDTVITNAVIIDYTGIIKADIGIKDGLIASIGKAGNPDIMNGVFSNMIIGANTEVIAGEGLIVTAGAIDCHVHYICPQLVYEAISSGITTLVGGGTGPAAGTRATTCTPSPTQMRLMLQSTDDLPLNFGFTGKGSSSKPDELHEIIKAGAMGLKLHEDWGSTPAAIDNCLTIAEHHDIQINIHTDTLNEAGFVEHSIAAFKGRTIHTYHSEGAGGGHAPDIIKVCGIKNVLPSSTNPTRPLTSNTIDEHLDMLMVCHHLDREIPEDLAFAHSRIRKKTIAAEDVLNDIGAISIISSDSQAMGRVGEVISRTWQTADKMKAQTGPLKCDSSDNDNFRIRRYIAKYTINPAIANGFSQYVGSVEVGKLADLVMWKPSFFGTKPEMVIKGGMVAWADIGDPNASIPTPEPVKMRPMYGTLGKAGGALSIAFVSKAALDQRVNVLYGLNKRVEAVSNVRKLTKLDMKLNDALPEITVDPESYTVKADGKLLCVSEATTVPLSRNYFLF
Method: Urease inhibitory activity was evaluated based on Tanaka et al. report ([18]). Jack bean urease (Sigma-Aldrich, Germany) was used as a surrogate for H. pylori urease. Each well of a 96-well plate contained 25 μL jack bean urease (6U, Sigma-Aldrich) and 25 μL different concentrations of tested materials that were prepared in phosphate buffer (PBS, pH 6.8 ) and DMSO 1% as a co-solvent. After 30 min incubation at room temperature, 200 μL of a stock solution composed of PBS (100 mM), urea (150 mM), and phenol red were added to each well. The absorbance changes were measured at 570 nm by a microplate reader. Hydroxyurea was used as the positive control ([18]).

bacteria = system: bacteria; parameters: method as in earlier work; details: combination with norfloxacin, ofloxacin and ciprofloxacin; ref 42 (Falcão‐Silva et al.); cited from earlier work

Q: Which results are given for penicillin?
A: Inhibition zone, S. aureus [1]: 24 mm; Inhibition zone, S. epidermidis [2]: 26 mm; Inhibition zone, E. coli [3]: 10 mm

Q: For `CC1(C)S[C@@H]2[C@H](NC(=O)[C@H](N)c3ccc(O)cc3)C(=O)N2[C@H]1C(=O)O` [Amoxicillin, amoxicillin], which MIC [4] is on record?
A: 0.5 µg/mL (≈ 1.37 µM)

Q: With `Cc1ccc(C(C)C)cc1O` [Carvacrol] as the compound, how does the IC50 (Jack bean urease) read?
A: 0.7 ± 0.01 mM

Q: Which IC50 (Jack bean urease) does the source give for `O=C(/C=C/c1ccc(O)cc1)OC[C@H]1O[C@@H](Oc2c(-c3ccc(O)cc3)oc3cc(O)cc(O)c3c2=O)[C@H](O)[C@@H](O)[C@@H]1O` [Tiliroside, Kaempferol-3-O-(6''-O-trans-coumaryl) glucoside] here?
A: 0.45 ± 0.05 mM

Q: And the “Lowering of antibiotic MIC values in combination with tiliroside” value (bacteria)?
A: 2-16 fold

Q: For `Cc1ccc(C(C)C)c(O)c1` [Thymol], which IC50 (Jack bean urease) is on record?
A: 1.33 ± 0.06 mM

Q: With `NC(=O)NO` [Hydroxyurea] as the compound, how does the IC50 (Jack bean urease; isolated compounds, jack bean urease, read-out: Urease inhibitory IC50 (mM) ± SD) read?
A: 0.78 ± 0.01 mM

Q: What about the “Urease inhibitory IC50 (µg/mL) ± SD” value (Jack bean urease; total extract and fractions, jack bean urease) of the same compound?
A: 59.51 ± 0.01 µg/mL
